Assay results taken from patent EP0008269A1, “Medicines containing as active ingredients compounds of the benzene-sulfone type; compounds of this type and process for their preparation” (CHOAY S.A., priority 1978, dated 1980).

Experiments:
[1] = tested on: vomissements; assay: Antiemetic activity: apomorphine-induced vomiting in dogs; assay type: in vivo, chiens Beagle; conditions: 1 mg/kg intramuscular, 30 min before apomorphine 0,1 mg/kg s.c., vomiting counted for the next half hour
Procedure: Les essais sont effectués sur des chiens Beagle adultes de 8 à 12 kg, qui sont mis à jeun pendant 24 heures.
Chaque animal est son propre témoin, un essai sans protection étant réalisé 8 jours avant l'essai proprement dit en présence de la substance étudiée.
Les substances étudiées sont administrées dans du soluté isotonique à raison de 1 mg/kg et par voie intramusculaire. 30 minutes après, on injecte l'apomorphine par voie sous-cutanée, à raison de 0,1 mg/kg., et l'on dénombre les vomissements dans la demi-heure suivante.
Dans ces conditions, on a observé, pour les substances des exemples 22, 24, 26 et 27, une réduction du nombre de vomissements qui est respectivement de 50,8 %, 28,2 %, 44,2 %, 47,6 %.

[2] = tested on: ulcères provoqués par immobilisation; assay: Antiulcer activity: restraint (immobilisation) ulcer in rats; assay type: in vivo; conditions: rat, 10 mg/kg i.p., compared with controls
Procedure: Elle est déterminée sur les ulcères provoqués par immobilisation chez le rat. La méthode de mesure est celle décrite par G. Narcisse (Thérapie, 1972, 27, 705). La substance est administrée par voie intrapéritonéale, à raison de 10 mg/kg.
Par comparaison avec des témoins, le pourcentage de protection, dans le cas du produit de l'exemple 22, est de 61,3 %.

[3] = tested on: fibrillation; assay: Antifibrillant activity: chloroform-induced cardiac fibrillation in mice; assay type: in vivo, souris; conditions: 100 mg/kg i.p., 15 min before chloroform exposure
Procedure: Pour ces essais, on utilise comme précédemment des lots de 10 souris auxquelles sont administrés, par voie intrapéritonéale, 0,5 ml d'une solution ou suspension de substance étudiée dans du soluté isotonique.
Les souris sont traitées suivant une méthode voisine de celle décrite par B. Vargaftig et J.L. Coignet (Eur. J. Pharmacol., 1969, 6, 49). Selon cette méthode, les souris sont soumises à une atmosphère chargée d'une quantité déterminée de chloroforme. Lorsque les mouvements respiratoires cessent, le thorax est ouvert et le coeur examiné pour l'observation des tremblements superficiels très rapides. La fibrillation est positive lorsque ces mouvements sont observés pendant plus de 5 secondes.
La substance étudiée est administrée à raison de 100 mg/kg 15 minutes avant l'exposition au chloroforme.
La protection observée pour les substances des exemples 22 et 27 est d'environ 30 %.

[4] = tested on: cellules de la Lignée L.1210; assay: Cytostatic activity: growth inhibition of L.1210 cells; assay type: cell-based; conditions: L.1210 cells in culture
Procedure: Cette activité est étudiée en mesurant le pouvoir d'in- hibition de la croissance de cellules de la Lignée L.1210 cultivée sur un milieu approprié.
Ce pouvoir est exprimé en poids de produit par 10^5 cellules inhibant de 50 % la croissance cellulaire.
Pour la substance de l'exemple 5, ce poids est de 6 µg/10^5 cellules, pour celle de l'exemple 7, il est de 4 µg/10^5 cellules.

[5] = tested on: facteurs de coagulation; assay: Activity on coagulation factors: thrombo-elastography on blood samples (terms r and k)
Text: L'étude est faite par thrombo-élastographie sur des échantillons sanguins auxquels sont ajoutées des quantités dosées des substances actives selon l'invention.
La mesure des termes r (temps d'apparition de la fibrine pendant lequel la viscosité ne varie pas) et k (temps d'accroissement de la viscosité jusqu'à une valeur donnée) montre, pour les échantillons traités à l'aide de la substance de l'exemple 7, une augmentation de 32 % pour 10/ug/ml et de 45 % pour 100/ug/ml.

Row | Compound | réduction du nombre de vomissements [1] | protection (fibrillation) [3] [%] | poids de produit par 10^5 cellules inhibant de 50 % la croissance cellulaire [4] [µg/10^5 cellules] | also measured
1 | COc1ccc(Cl)cc1S(=O)(=O)CCN1CCOCC1 [Exemple 22] | 50,8% | ~30 | – | pourcentage de protection [2]: 61,3%
2 | COc1ccc(Cl)cc1S(=O)(=O)CCCN1CCCCC1 [Exemple 27] | 47,6% | ~30 | – | –
3 | COc1ccc(Cl)cc1S(=O)(=O)CCN1CCCCC1 [Exemple 24] | 28,2% | – | – | –
4 | COc1ccc(Cl)cc1S(=O)(=O)CCCN1CCCC1 [Exemple 26] | 44,2% | – | – | –
5 | COc1ccc(Cl)cc1S(=O)(=O)CCCl [Exemple 7] | – | – | 4 | augmentation des termes r et k ([5]; 10/ug/ml added to blood samples): 32%; augmentation des termes r et k ([5]; 100/ug/ml added to blood samples): 45%
6 | COc1ccccc1S(=O)(=O)CCCl [Exemple 5] | – | – | 6 | –
